Our source for the EC50 values is patent US10034886B2, “GLP-1 receptor modulators” (Celgene International II SÀRL, priority 2014, dated 2018).

This test deals with T1, GLP-1R (Homo sapiens, UniProt P43220).
T1 construct: host or cells: GLP-1R CRE-bla CHO-K1 cells
T1 sequence (P43220 24-463): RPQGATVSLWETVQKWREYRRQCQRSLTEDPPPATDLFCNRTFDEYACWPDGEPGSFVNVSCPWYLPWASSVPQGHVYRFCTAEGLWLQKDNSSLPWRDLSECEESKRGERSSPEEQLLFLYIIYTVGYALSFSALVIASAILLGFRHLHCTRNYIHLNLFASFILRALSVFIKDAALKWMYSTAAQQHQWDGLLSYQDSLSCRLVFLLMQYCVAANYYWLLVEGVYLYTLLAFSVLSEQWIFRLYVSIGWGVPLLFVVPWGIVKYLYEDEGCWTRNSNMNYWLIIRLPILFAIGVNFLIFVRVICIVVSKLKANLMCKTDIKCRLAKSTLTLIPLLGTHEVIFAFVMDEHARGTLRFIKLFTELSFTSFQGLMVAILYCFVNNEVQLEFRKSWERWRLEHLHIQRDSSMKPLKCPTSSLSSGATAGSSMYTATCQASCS
T1 sequence (P01275 100-127 partner limits assumed): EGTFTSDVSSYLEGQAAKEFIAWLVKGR
The test is described as follows: EC20 GLP-1(9-36) PAM cAMP assay: dose response of compound in the presence of fixed concentration of GLP-1(9-36). Type of test: cell-based. The settings on record: dose response of compound in presence of fixed concentration of GLP-1(9-36), GLP-1R CRE-bla CHO-K1 cells, read-out: EC20 GLP-1(9-36) PAM EC50. The procedure, abridged: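 Positive allosteric modulation read as cAMP accumulation: compound titrations (12 points) combined with an EC20 level of GLP-1(9-36) on CHO-K1 GLP-1R CRE-bla cells, IBMX present, 30 min, 37 °C, pH 7.4 buffer. Luminescence converted to cAMP via standards; non-linear fit gave EC50 and Emax.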
With `C[C@@H](NC(=O)[C@H](Cc1ccc(-c2ncc(-c3cc4ccccc4cc3O)cn2)cc1)NC(=O)c1ccc(C(C)(C)C)s1)C(=O)O` [Compound 1008], the EC50 lay within 5 to 10 µM.

As to `C[C@@H](NC(=O)[C@H](Cc1ccc(-c2ncc(-c3ccc(Oc4ccccc4F)nc3)cn2)cc1)NC(=O)c1ccc(C(C)(C)C)s1)C(=O)O` [Compound 1009], the EC50 is 2.5 to 5 µM. The value for `C[C@@H](NC(=O)[C@H](Cc1ccc(-c2ncc(-c3ccc4c(ccn4S(=O)(=O)c4ccccc4)c3)cn2)cc1)NC(=O)c1ccc(C(C)(C)C)s1)C(=O)O` [Compound 1010] was 2.5 to 5 µM; that for `CC(C)COc1cc(-c2cnc(-c3ccc(C[C@H](NC(=O)c4ccc(C(C)(C)C)s4)C(=O)N[C@H](C)C(=O)O)cc3)nc2)cc(Cl)c1F` [Compound 1011] was 2.5 to 5 µM; that for `COc1ccccc1-c1ccc(-c2cnc(-c3ccc(C[C@H](NC(=O)c4ccc(C(C)(C)C)s4)C(=O)N[C@H](C)C(=O)O)cc3)nc2)cc1` [Compound 1012] was 2.5 to 5 µM. The value for `CC(C)Oc1cc(-c2cnc(-c3ccc(C[C@H](NC(=O)c4ccc(C(C)(C)C)s4)C(=O)N[C@H](C)C(=O)O)cc3)nc2)ccc1OC(F)(F)F` [Compound 1013] was 5 to 10 µM; that for `CCCCC(=O)c1ccc(-c2cnc(-c3ccc(C[C@H](NC(=O)c4ccc(C(C)(C)C)s4)C(=O)N[C@H](C)C(=O)O)cc3)nc2)c(C)c1` [Compound 1014] was 5 to 10 µM; that for `C[C@@H](NC(=O)[C@H](Cc1ccc(-c2ncc(-c3ccc(N(c4ccccc4)c4ccccc4)cc3)cn2)cc1)NC(=O)c1ccc(C(C)(C)C)s1)C(=O)O` [Compound 1015] was 0.8 to 2.5 µM.

With `Cc1cccc(Oc2ccc(-c3cnc(-c4ccc(C[C@H](NC(=O)c5ccc(C(C)(C)C)s5)C(=O)N[C@H](C)C(=O)O)cc4)nc3)cn2)c1` [Compound 1016], the EC50 was 5 to 10 µM. Under `CC(C)Oc1cc(-c2cnc(-c3ccc(C[C@H](NC(=O)c4ccc(C(C)(C)C)s4)C(=O)N[C@H](C)C(=O)O)cc3)nc2)cc(Cl)c1OC(C)C` [Compound 1017] stands 2.5 to 5 µM. The value for `C[C@@H](NC(=O)[C@H](Cc1ccc(-c2ncc(-c3ccc(C(C)(C)C#N)cc3F)cn2)cc1)NC(=O)c1ccc(C(C)(C)C)s1)C(=O)O` [Compound 1018] was 5 to 10 µM; that for `COc1ccc(-c2cnc(-c3ccc(C[C@H](NC(=O)c4ccc(C(C)(C)C)s4)C(=O)N[C@H](C)C(=O)O)cc3)nc2)c(F)c1OC1CCCC1` [Compound 1019] was 2.5 to 5 µM; that for `C[C@@H](NC(=O)[C@H](Cc1ccc(-c2ncc(-c3cc(O)cc(OC(F)(F)F)c3)cn2)cc1)NC(=O)c1ccc(C(C)(C)C)s1)C(=O)O` [Compound 1020] was 5 to 10 µM. Under `CC(C)Cc1ccc(-c2cnc(-c3ccc(C[C@H](NC(=O)c4ccc(C(C)(C)C)s4)C(=O)N[C@H](C)C(=O)O)cc3)nc2)cc1` [Compound 1021] stands 2.5 to 5 µM. As to `CCCCOc1c(OC)ccc(-c2cnc(-c3ccc(C[C@H](NC(=O)c4ccc(C(C)(C)C)s4)C(=O)N[C@H](C)C(=O)O)cc3)nc2)c1F` [Compound 1022], the EC50 lay within 2.5 to 5 µM. As to `Cc1ccccc1-c1ccc(-c2cnc(-c3ccc(C[C@H](NC(=O)c4ccc(C(C)(C)C)s4)C(=O)N[C@H](C)C(=O)O)cc3)nc2)cc1` [Compound 1023], the EC50 is 2.5 to 5 µM. The value for `C[C@@H](NC(=O)[C@H](Cc1ccc(-c2ncc(-c3cc4ccccc4s3)cn2)cc1)NC(=O)c1ccc(C(C)(C)C)s1)C(=O)O` [Compound 1024] was 0.8 to 2.5 µM; that for `C[C@@H](NC(=O)[C@H](Cc1ccc(-c2ncc(-c3cc(OC(F)(F)F)ccc3F)cn2)cc1)NC(=O)c1ccc(C(C)(C)C)s1)C(=O)O` [Compound 1026] was 2.5 to 5 µM. The value for `C[C@@H](NC(=O)[C@H](Cc1ccc(-c2ncc(-c3ccc(OC(F)(F)F)c(OCC4CC4)c3)cn2)cc1)NC(=O)c1ccc(C(C)(C)C)s1)C(=O)O` [Compound 1027] was 5 to 10 µM; that for `CC(C)N(C(=O)c1ccc(-c2cnc(-c3ccc(C[C@H](NC(=O)c4ccc(C(C)(C)C)s4)C(=O)N[C@H](C)C(=O)O)cc3)nc2)cc1)C(C)C` [Compound 1028] was 2.5 to 5 µM; that for `C[C@@H](NC(=O)[C@H](Cc1ccc(-c2ncc(-c3ccc(Cl)cc3)cn2)cc1)NC(=O)c1ccc(C(C)(C)C)s1)C(=O)O` [Compound 1029] was 2.5 to 5 µM. The value for `Cc1ccc(C(O)c2ccc(-c3cnc(-c4ccc(C[C@H](NC(=O)c5ccc(C(C)(C)C)s5)C(=O)N[C@H](C)C(=O)O)cc4)nc3)cc2)cc1` (some centres unmarked) [Compound 1030] was 5 to 10 µM. Turning to `C[C@@H](NC(=O)[C@H](Cc1ccc(-c2ncc(-c3ccc4c(C5CCCCO5)c(O)ccc4c3)cn2)cc1)NC(=O)c1ccc(C(C)(C)C)s1)C(=O)O` (some centres unmarked) [Compound 1031], the EC50 is 2.5 to 5 µM. Under `C[C@@H](NC(=O)[C@H](Cc1ccc(-c2ncc(-c3cccc(C(=O)Nc4cccc(F)c4)c3)cn2)cc1)NC(=O)c1ccc(C(C)(C)C)s1)C(=O)O` [Compound 1032] stands 0.8 to 2.5 µM; under `CC(C)c1cccc(-c2cnc(-c3ccc(C[C@H](NC(=O)c4ccc(C(C)(C)C)s4)C(=O)N[C@H](C)C(=O)O)cc3)nc2)c1` [Compound 1033], 5 to 10 µM.

Regarding `CC(C)c1ccc(-c2cnc(-c3ccc(C[C@H](NC(=O)c4ccc(C(C)(C)C)s4)C(=O)N[C@H](C)C(=O)O)cc3)nc2)cc1` [Compound 1034], the EC50 lay in the range of 2.5 to 5 µM. Under `CC(C)Sc1ccc(-c2cnc(-c3ccc(C[C@H](NC(=O)c4ccc(C(C)(C)C)s4)C(=O)N[C@H](C)C(=O)O)cc3)nc2)cc1` [Compound 1035] stands 0.8 to 2.5 µM. Consider `CCOc1cc(-c2cnc(-c3ccc(C[C@H](NC(=O)c4ccc(C(C)(C)C)s4)C(=O)N[C@H](C)C(=O)O)cc3)nc2)cc(C(F)(F)F)c1` [Compound 1036], for which the EC50 was in the range of 2.5 to 5 µM. Under `CCCCN(Cc1ccc(OC)cc1)S(=O)(=O)c1ccc(-c2cnc(-c3ccc(C[C@H](NC(=O)c4ccc(C(C)(C)C)s4)C(=O)N[C@H](C)C(=O)O)cc3)nc2)cc1` [Compound 1037] stands 0.8 to 2.5 µM.

`CC(C)COc1ncc(-c2cnc(-c3ccc(C[C@H](NC(=O)c4ccc(C(C)(C)C)s4)C(=O)N[C@H](C)C(=O)O)cc3)nc2)cc1Cl` [Compound 1038]: the EC50 lay within 2.5 to 5 µM. Under `CCCCOc1cc(-c2cnc(-c3ccc(C[C@H](NC(=O)c4ccc(C(C)(C)C)s4)C(=O)N[C@H](C)C(=O)O)cc3)nc2)cc(Cl)c1OC(C)C` [Compound 1039] stands 0.8 to 2.5 µM; under `C[C@@H](NC(=O)[C@H](Cc1ccc(-c2ncc(-c3ccc(OCc4ccccc4)nc3)cn2)cc1)NC(=O)c1ccc(C(C)(C)C)s1)C(=O)O` [Compound 1040], 5 to 10 µM. Under `C[C@@H](NC(=O)[C@H](Cc1ccc(-c2ncc(-c3cc(OCc4ccccc4)ncc3F)cn2)cc1)NC(=O)c1ccc(C(C)(C)C)s1)C(=O)O` [Compound 1041] stands 0.8 to 2.5 µM. The value for `Cc1cc(C)cc(-c2cnc(-c3ccc(C[C@H](NC(=O)c4ccc(C(C)(C)C)s4)C(=O)N[C@H](C)C(=O)O)cc3)nc2)c1` [Compound 1042] was 5 to 10 µM; that for `C[C@@H](NC(=O)[C@H](Cc1ccc(-c2ncc(-c3ccc(C(=O)NCC4CCCCC4)cc3)cn2)cc1)NC(=O)c1ccc(C(C)(C)C)s1)C(=O)O` [Compound 1043] was 2.5 to 5 µM. As to `CCCCOc1ccc(-c2cnc(-c3ccc(C[C@H](NC(=O)c4ccc(C(C)(C)C)s4)C(=O)N[C@H](C)C(=O)O)cc3)nc2)cc1F` [Compound 1044], the EC50 is 2.5 to 5 µM. In the case of `CCOc1cc(OC(F)(F)F)cc(-c2cnc(-c3ccc(C[C@H](NC(=O)c4ccc(C(C)(C)C)s4)C(=O)N[C@H](C)C(=O)O)cc3)nc2)c1F` [Compound 1045], the EC50 was in the range of 2.5 to 5 µM. As to `C[C@@H](NC(=O)[C@H](Cc1ccc(-c2ncc(-c3ccc(C4CCCC4)cc3)cn2)cc1)NC(=O)c1ccc(C(C)(C)C)s1)C(=O)O` [Compound 1046], the EC50 is 0.8 to 2.5 µM.

Take `CCCCCCCOc1ccc(-c2cnc(-c3ccc(C[C@H](NC(=O)/C=C/c4ccc(OC)cc4)C(=O)N[C@H](C)C(=O)O)cc3)nc2)cc1` [Compound 1047]: the concentration giving a half-maximal response (EC50) lay within 2.5 to 5 µM.

For `CCCCCCCOc1ccc(-c2cnc(-c3ccc(C[C@H](NC(=O)c4ccc(C(C)(C)C)s4)C(=O)N4CCCC45CNC5)cc3)nc2)cc1` [Compound 1048], the EC50 lay in the range of 2.5 to 5 µM. Take `CCCCCCCOc1ccc(-c2cnc(-c3ccc(C[C@H](NC(=O)c4ccc(C(C)(C)C)s4)C(=O)N4C5CCC4C(C(=O)O)C5)cc3)nc2)cc1` (some centres unmarked) [Compound 1049]: the EC50 lay within 0.8 to 2.5 µM. The value for `C[C@@H](NC(=O)[C@H](Cc1ccc(-c2ncc(/C=C\c3ccccc3)cn2)cc1)NC(=O)c1ccc(C(C)(C)C)s1)C(=O)O` [Compound 1050] was 0.8 to 2.5 µM. In the case of `C[C@@H](NC(=O)[C@H](Cc1ccc(-c2ncc(/C=C\CCCc3ccccc3)cn2)cc1)NC(=O)c1ccc(C(C)(C)C)s1)C(=O)O` [Compound 1051], the EC50 was 5 to 10 µM. Under `Cc1ccc(/C=C/c2cnc(-c3ccc(C[C@H](NC(=O)c4ccc(C(C)(C)C)s4)C(=O)N[C@H](C)C(=O)O)cc3)nc2)cc1` [Compound 1052] stands 2.5 to 5 µM. Turning to `COCCc1ccc(OCc2ccc(-c3cnc(-c4ccc(C[C@H](NC(=O)c5ccc(C(C)(C)C)s5)C(=O)N[C@H](C)C(=O)O)cc4)nc3)cc2)cc1` [Compound 1053], the EC50 was in the range of 2.5 to 5 µM.

`COc1ccc(-c2cnc(-c3ccc(C[C@H](NC(=O)c4ccc(C(C)(C)C)s4)C(=O)N[C@H](C)C(=O)O)cc3)nc2)cc1C12CC3CC(CC(C3)C1)C2` [Compound 1054]: the EC50 was 2.5 to 5 µM. The value for `CCc1ccc(/C=C/c2cnc(-c3ccc(C[C@H](NC(=O)c4ccc(C(C)(C)C)s4)C(=O)N[C@H](C)C(=O)O)cc3)nc2)cc1` [Compound 1055] was 2.5 to 5 µM.
